From patent publication US12642809B2, “Fucosylation and immune modulation in cancer” (H. LEE MOFFITT CANCER CENTER AND RESEARCH INSTITUTE, INC., priority 2019, dated 2026)
Entries after “also recorded” stand apart in the source; their conditions may differ.

What was measured:
SW1 melanoma tumors = SW1 melanoma tumors in C3H/HeN mice fed control or L-fucose water; format: in vivo, mouse; settings: for reduced tumor growth: 100 mM L-fucose in drinking water from ~150 mm^3
Description: To determine which immune cell populations were affected by L-fucose, another mouse melanoma model treated with control or L-fucose-supplemented water was used. First, 1.25×10^6 SW1 mouse melanoma cells were injected into the back right flanks of the mice and allowed the tumors to grow to 150 mm^3. At 150 mm^3 (14 days), 100 mM L-fucose was administered via the drinking water to half of the mice. Tumor growth was monitored (FIGS. 3A and 3B). Total and specific subpopulations of tumor-infiltrating lymphocytes were assessed by cell flow cytometric analysis (FIGS. 3C and 3D). Assessed populations included F4/80 (macrophage)-, Gr-1 (MDSCs)-, Cd11c (Dendritic cells)-, and DX5 (NK cells)-positive cells. For T-cells, we probed for CD3 (general T-cell marker) and further for CD4 and CD8 (for those T cell subpopulations). Of the CD4-positive cells, CD25 positive cells was used to elucidate the T regulatory cells. […] Both CD4 and CD8 positive T cells (CD3+ cells) increased in response to fucose. However, myeloid derived suppressor cells (MDSCs) decreased in response to dietary fucose supplementation.
Tumors of SW1 or SMI melanoma cells from C3H/HeJ or C57BL/6 mice, respectively) were digested using 1× tumor digest buffer (0.5 mg/ml. Collagenase I, 0.5 mg/ml. Collagenase IV, 0.25 mg/ml. Hyalyronidase V. 0.1 mg/ml. DNAse I in HBSS (Millipore Sigma (St. Louis, MO)). Tumors were homogenized using the Miltenyi MACs dissociator. Red blood cells were lysed using ACK lysis buffer (Life Technologies, (Grand Island, NY)). Tumor homogenate cells were counted using a standard hemocytometer. (7) Flow Cytometry (a) TIL Profiling:
(§1) Single-cell suspensions from tumor and spleen tissue were stained with Live/Dead Zombie NIR (Biolegend, (San Diego, CA)) at 1:1,000 in PBS for 20 min. Cell suspensions were spun down and stained with the following antibodies: APC anti-mouse CD3 (0.5 μg/mL, BD Biosciences (San Jose, CA)), Pacific Blue anti-mouse CD4 ([…], BD Biosciences (San Jose, CA)), BV785 anti-mouse CD8 (0.5 μg/mL, BD Biosciences (San Jose, CA)), PerCP anti-mouse CD25 ([…], BD Biosciences (San Jose, CA)), FITC anti-mouse F4/80 (0.5 μg/mL, BD Biosciences (San Jose, CA)), PeCy7 anti-mouse CD11c (0.5 μg/mL, BD Biosciences (San Jose, CA)), PE anti-mouse NK1.1 (0.5 μg/mL, BD Biosciences (San Jose, CA)), PE anti-mouse DX5 (0.5 μg/mL, BD Biosciences (San Jose, CA)), PerCP-Cy5.5 anti-mouse CD11b (0.5 μg/mL, BD Biosciences (San Jose, CA)). After staining, the cells were washed and fixed (2% formaldehyde), followed by another wash and flow cytometric analysis. The compensation controls were prepared using 0.5 μg/ml. of each antibody with beads UltraComp eBeads™, (ThermoFisher Scientific (Waltham, MA)). All samples were subject to flow cytometric analysis using a LSR Flow Cytometer (BD Biosciences (San Jose, CA)). Flow cytometric data was further analyzed using FlowJo™ analysis software (BD Biosciences (San Jose, CA)). TIL profiles were determined as a measure of TIL subpopulations per gram of tumor tissues or % of total splenocytes.
FFPE mouse tumor sections were immunostained with FITC-conjugated AAL lectin (0.4 μg/mL, Vector Laboratories (Burlingame, CA)), rabbit anti-Mart-1 (0.2 μg/mL, Millipore Sigma (St. Louis, MO), and rabbit anti-S100 (0.2 μg/mL, Agilent Technologies (Santa Clara, CA)), followed by AlexaFluor 594 donkey anti-rabbit secondary antibody (0.05 μg/mL, ThermoFisher Scientific (Waltham, MA)). The slides were mounted with VECTASHIELD®+DAPI (Vector Laboratories (Burlingame, CA)). Microscopy images were acquired using a Keyence BZ-X710 microscope (Osaka, Japan), and images were measured for AAL-positive signal within MARTI-/S 100-positive regions (designated as melanoma regions of interest) using FIJI software (NIH). Statistical analysis was performed using GraphPad Prism™ (San Diego, CA).
Four-to-six-week-old female C3HeN and male C57BL6 mice were purchased from Charles Rivers Laboratories for the indicated experiments. […]

SM1 tumors = assay: CD4+/CD8+ T cell immunodepletion, SM1 model; format: in vivo, mouse; settings: CD4+ T cell-depleted mice
Description: as §1, with “All samples were subject to flow cytometric analysis using a LSR Flow Cytometer (BD Biosciences (San Jose, CA)).” left out, “splenocytes. […]” for “splenocytes.”

HLA-DRB1 = assay: Flow cytometry of cell surface HLA-DRB1 in melanoma cells; format: cell-based, human; settings: 250 μM, 72 h, panel of melanoma cell lines
Description: Indicated cells were treated for 72 h with DMSO, 250 μM fucosyltransferase inhibitor (FUTi) (Millipore Sigma (St. Louis, MO)), or 250 μM of L-fucose (Biosynth (Oak Terrace, IL)). After 72 h, cells were stained with 0.1 μM PKH26 (Millipore Sigma (St. Louis, MO)) prior to fixation in 4% formaldehyde solution. The cells were stained with anti-HLA-DRB1 (rabbit anti-human HLA-DRB1 (0.2 μg/mL, ab92371, Abcam (Cambridge, UK)) and fluorescein AAL (0.2 μg/ml. Vector Labs (Burlingame, CA)), or anti-human or anti-mouse PD-L1 (Novus Biologicals (Centennial, CO) or Biolegend (San Diego, CA), respectively) overnight. The following day the cells were washed 3 times prior to adding AlexaFluor 594 donkey anti-rabbit (0.8 μg/mL, ThermoFisher Scientific (Waltham, MA)). Cells were washed 3 times and then subject to flow cytometric analyses using a FACSCalibur™ (BD Biosciences (San Jose, CA)). Samples were analyzed using FlowJo™ analysis software (BD Biosciences (San Jose, CA)). Median values of DRB1 and AAL were normalized to PKH26 values and statistical analysis was performed using GraphPad Prism™.

[1] = empty vector-expressing SW1 tumors
[2] = vs control diet, listed as L-fuc

## C[C@H](O)[C@@H](O)[C@@H](O)[C@H](O)C=O [L-fucose]
SW1 melanoma tumors; 100 mM L-fucose in drinking water
  increase in tumor fucosylation: ~2.25 fold
SW1 melanoma tumors
  reduced tumor growth: > 65%
SW1 melanoma tumors; listed as L-fuc
  reduced tumor growth: ~50%
SW1 melanoma tumors; 100 mM L-fucose in drinking water, flow cytometry
  increase in total TIL counts / infiltrating immune cells per gram of tumor: 10-50 fold
SW1 melanoma tumors; [1]
  reduced growth of EV tumors: ~50%
  total TILs in EV tumors: doubling
SW1 melanoma tumors; flow cytometry
  splenic lymphocyte profiles: without significant changes
SW1 melanoma tumors; mFuk-expressing SW1 tumors
  additive effect of L-fuc in mFuk tumors: No additive effects
SW1 melanoma tumors; vs control diet
  absolute counts of each TIL subpopulation: increased
  intratumoral CD4+ and CD8+ T cells: increased; also recorded: doubled
  myeloid derived suppressor cells (MDSCs) in tumor: decreased
  overall immune infiltration of tumors: increased
SW1 melanoma tumors; [2]
  intratumoral CD4+ and CD8+ T cells: doubling
  myeloid derived suppressor cells (MDSCs) in tumor: either decreased or low
SM1 tumors
  L-fuc-triggered suppression of SM1 tumors and TIL increases: abrogated
HLA-DRB1
  cell surface HLA-DRB1 relative to DMSO: promotes cell surface abundance; also recorded: increased
HLA-DRB1; listed as L-fuc
  cell surface HLA-DRB1 relative to DMSO: increased
